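Cells were grown in 96-well plates and exposed to each compound for 48 hours at five concentrations; endpoints were interpolated linearly between bracketing concentrations, or set to the highest concentration if not reached. GI50: concentration for 50% inhibition of growth.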 Active and inactive are the calls of the source. No stated cut-off is given here; in the data, active = GI50 up to about 1.1 µM and inactive = higher. Where a SMILES comes first, the peptide text is derived from it. The star is where a group is joined. Cbz = O=C(OCc1ccccc1)*
Key:
Assay in all cases: growth of human tumour cells (NCI), 48 h
ACHN = system: ACHN
BT-549 = system: BT-549
CAKI-1 = system: CAKI-1
CCRF-CEM = system: CCRF-CEM
HCC 2998 = system: HCC 2998
HCT-15 = system: HCT-15
MCF7 = system: MCF7
NCI-H226 = system: NCI-H226
NCI-H460 = system: NCI-H460
NCI-H522 = system: NCI-H522
OVCAR-4 = system: OVCAR-4
OVCAR-8 = system: OVCAR-8
RXF 393 = system: RXF 393
SN12C = system: SN12C
SNB-19 = system: SNB-19
SNB-75 = system: SNB-75
SW-620 = system: SW-620
UO-31 = system: UO-31
T47D = system: T47D

| SMILES | GI50 (ACHN) | GI50 (BT-549) | GI50 (CAKI-1) | GI50 (CCRF-CEM) | GI50 (HCC 2998) | GI50 (HCT-15) [µM] | GI50 (MCF7) | GI50 (NCI-H226) | GI50 (NCI-H460) | GI50 (NCI-H522) | GI50 (OVCAR-4) | GI50 (OVCAR-8) | GI50 (RXF 393) | GI50 (SN12C) | GI50 (SNB-19) | GI50 (SNB-75) | GI50 (SW-620) | GI50 (UO-31) | GI50 (T47D) |
| --- | --- | --- | --- | --- | --- | --- | --- | --- | --- | --- | --- | --- | --- | --- | --- | --- | --- | --- | --- |
| Nc1nc2ccc(OCC(O)CN3CCCCC3)cc2[n+]([O-])n1 (centres undefined) | > 100 µM (inactive) | > 100 µM (inactive) | > 100 µM (inactive) | > 100 µM (inactive) | > 100 µM (inactive) | > 100 | > 100 µM (inactive) | > 100 µM (inactive) | > 100 µM (inactive) | > 100 µM (inactive) | > 100 µM (inactive) | > 100 µM (inactive) | > 100 µM (inactive) | > 100 µM (inactive) | > 100 µM (inactive) | 70.3 µM (inactive) | > 100 µM (inactive) | > 100 µM (inactive) | – |
| CN1C(=O)N(c2ccccc2)C2(CCN(CC3COc4ccccc4O3)CC2)C1=O (centres undefined) | > 100 µM (inactive) | – | 32.4 µM (inactive) | > 100 µM (inactive) | > 100 µM (inactive) | > 100 | > 100 µM (inactive) | 59.2 µM (inactive) | 96.2 µM (inactive) | > 100 µM (inactive) | > 100 µM (inactive) | > 100 µM (inactive) | > 100 µM (inactive) | > 100 µM (inactive) | 5.71 µM (inactive) | – | 4.5 µM (inactive) | > 100 µM (inactive) | > 100 µM (inactive) |
| O=S(=O)(/N=C(\NO)Nc1ccc(Cl)cc1)c1cccc2nsnc12 | 34.4 µM (inactive) | 28.6 µM (inactive) | 12.9 µM (inactive) | 26.1 µM (inactive) | – | 18.3 | – | 81.1 µM (inactive) | 38.7 µM (inactive) | 11 µM (inactive) | 13.7 µM (inactive) | 34.3 µM (inactive) | 19.6 µM (inactive) | 21.9 µM (inactive) | 94.4 µM (inactive) | 31.8 µM (inactive) | 31.8 µM (inactive) | 65.2 µM (inactive) | 48.1 µM (inactive) |
| CC(CCC#N)(CCC#N)C(=O)CC(O)(C(F)(F)F)C(F)(F)F | 4.13 µM (inactive) | – | 4.09 µM (inactive) | 1.54 µM (inactive) | 17 µM (inactive) | 2.28 | 6.5 µM (inactive) | 19.8 µM (inactive) | 16.6 µM (inactive) | 1.85 µM (inactive) | 5.02 µM (inactive) | 3.3 µM (inactive) | 2.07 µM (inactive) | 7.24 µM (inactive) | 23.7 µM (inactive) | 14.9 µM (inactive) | 2.76 µM (inactive) | 4.08 µM (inactive) | 4.22 µM (inactive) |
| Cc1ccc(S(=O)(=O)N2CC3OC(C)(C)OC3C2CO)cc1 (centres undefined) | > 100 µM (inactive) | – | > 100 µM (inactive) | > 100 µM (inactive) | > 100 µM (inactive) | > 100 | > 100 µM (inactive) | > 100 µM (inactive) | > 100 µM (inactive) | > 100 µM (inactive) | > 100 µM (inactive) | > 100 µM (inactive) | > 100 µM (inactive) | > 100 µM (inactive) | – | > 100 µM (inactive) | > 100 µM (inactive) | – | > 100 µM (inactive) |
| NC(=O)C(N)CC12CC3CC(CC(C3)C1)C2 (centres undefined) | 32.4 µM (inactive) | – | 27.3 µM (inactive) | 26.7 µM (inactive) | 21.6 µM (inactive) | 31.6 | 20 µM (inactive) | – | 34.4 µM (inactive) | 15 µM (inactive) | 17.5 µM (inactive) | 23.9 µM (inactive) | 16.3 µM (inactive) | 21 µM (inactive) | 23.7 µM (inactive) | 32.7 µM (inactive) | 33 µM (inactive) | 21.7 µM (inactive) | – |
| CCOC(=O)C(=O)CC(=O)C1=C(c2ccccc2OC)CC(c2cccs2)=CC1=O | > 100 µM (inactive) | > 100 µM (inactive) | 57.1 µM (inactive) | 37.1 µM (inactive) | – | 82.4 | – | > 100 µM (inactive) | 48.5 µM (inactive) | 20.9 µM (inactive) | – | > 100 µM (inactive) | 86.9 µM (inactive) | > 100 µM (inactive) | > 100 µM (inactive) | 0.418 µM (active) | 72.3 µM (inactive) | > 100 µM (inactive) | 90.6 µM (inactive) |
| CCOC(=O)CNC(=O)C(C)NC(=O)C(NC(=O)OCc1ccccc1)C(C)C (stereo not drawn) (Cbz-Val-Ala-Gly-OEt; configuration not given here) | > 100 µM (inactive) | 58.7 µM (inactive) | > 100 µM (inactive) | – | 90.2 µM (inactive) | > 100 | > 100 µM (inactive) | > 10 µM (inactive) | > 100 µM (inactive) | 97.5 µM (inactive) | – | > 100 µM (inactive) | > 100 µM (inactive) | > 100 µM (inactive) | > 100 µM (inactive) | > 100 µM (inactive) | > 100 µM (inactive) | 98.9 µM (inactive) | – |
